Reference: US5157052A, “Method for inhibiting IgE production” (priority 1990, dated 1992)

Test system: IL-2 receptor
Experiment: Splenocyte cell surface density/distribution (FACS): IL-2 receptor
Format: in vivo, mouse (Balb/c female)
Experimental: Another (Group B) is injected with 20 μg (±) methyl 11α,16-dihydroxy-16-methyl-9-oxoprosta-5Z,13E-dien-1-oate as in Example 13. […] A 3 cm incision is made with a scalpel above the left hip, and the spleen is cut free from adjoining tissue and placed in a 100 mn plastic culture dish containing 10 ml PBS. The splenic cells are then made into a suspension, by rubbing the spleens between the rough, frosted ends of microscope slides repeatedly until the only remaining particulate matter is connective tissue. Cells are transferred to a 15 ml conical polystyrene tube and centrifuged in a centrifuge at 1200 rpm for 5 minutes. The supernatant is discarded by aspiration and the cell pellet is resuspended in 10 ml PBS, then centrifuged at 1200 rpm for 5 minutes. The supernatant is aspirated and the cell pellet is resuspended in 15 mM Tris, 140 mM Ammonium Chloride, to lyse red blood cells. After incubating at room temperature for 10 minutes the cell suspension is centrifuged at 1200 rpm for 10 minutes. The supernatant is discarded and the cell pellet is resuspended in 10 ml FACS Buffer (PBS containing 0.1% BSA and 0.1% Sodium Azide). The cell suspension is filtered through sterile glass wool plugged in the top of a pasteur pipet. Cells in the flow through are counted using a hemacytometer, then the cell suspension is centrifuged at 1200 rpm for 5 minutes. The supernatant is discarded and the cell pellet is resuspended in a volume of FACS Buffer that will yield 4×10^7 cells/ml. 10 μl (4×10^5 cells) is added to each well of a 96-well V-bottom plate. 25 μl of diluted monoclonal antibody directed against splenocyte cell surface proteins is added to each well: Major Histocompatability Complex (MHC) Class II (M5114, ATCC, Rockville Md.), MHC Class I (M1/42, ATCC), Anti-IgD (JA12.5, ATCC, Rockville, Md.), Thymocyte (Thy)-1 (JIJ, ATCC), B220 (14.8, ATCC), Kappa light chain (187, ATCC), IL-2 Receptor (7D4, ATCC), Lyt-1 (7.313, ATCC) and CD23 (biotinylated B3B4) and incubated on ice for 30 minutes. 100 μl 10% BSA 0.1% sodium azide is added to each well, then the plates are centrifuged at 1200 rpm for 10 minutes. The liquid is removed by aspiration and the cell pellets are resuspended in 100 μl FACS Buffer, and centrifuged at 1200 rpm for 5 minutes. […] Samples are transferred to individual tubes and 10,000 cells are analyzed. Using the Lysis software (Becton Dickinson, Mountain View, Calif.) the mean channel log fluorescence and percent positive cells are determined for the entire cell population. […]

CCCCC(C)(O)C/C=C/[C@H]1[C@H](O)CC(=O)[C@@H]1C/C=C\CCCC(=O)OC (mixture of isomers) [(±) methyl 11α,16-dihydroxy-16-methyl-9-oxoprosta-5Z,13E-dien-1-oate]
Percentage Positive Cells (anti-IgD stimulated mice, 20 μg days 3 and 4, day 7 (PBS 18.4)): 23 ± 7.7%
Mean Channel Log Fluorescence (anti-IgD stimulated mice, 20 μg days 3 and 4, day 7 (PBS 101)): 97 ± 1.5
Percentage Positive Cells (unstimulated mice, 20 μg (PBS 2.4)): 2.7 ± 0.3%
Mean Channel Log Fluorescence (unstimulated mice, 20 μg (PBS 98)): 96 ± 1
